Experimental data as given in PubChem BioAssay AID2060893 (Molecular Pharmacology Branch, DTP, NCI, 2025).

Tested on: K86415-001-R-J1-PDC complex spheroids, viability
Assay: Anticancer human tumor K86415-001-R-J1-PDC patient-derived lung adenocarcinoma cell line growth inhibition [RAS]
Details: for IC50: curve of first compound; for viability, T/C: stronger effect = lower value; active = viability on the fitted dose curve at most 10% of control; inactive = the rest
How it was run: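 Agents were tested in combination matrices in half-log decrements from a top concentration at or near clinical Cmax (10 microM if undetermined). Targets were multi-cell spheroids of tumour lines plus HUVEC and MSC stromal cells.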
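Note: spheroids exposed to agents for seven days before readout.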

C[C@@H](NC(=O)c1ncnc(N)c1Cl)c1ncc(C(=O)Nc2cc(C(F)(F)F)c(Cl)cn2)s1 + CCn1c(-c2cccnc2C(C)OC)c2c3cc(ccc31)N1CCOC(CC(NC(=O)C(C(C)C)N(C)C(=O)C3(F)CCN(C(=O)C#CC(C)(C)N(C)C)CC3)C(=O)N3CCCC(N3)C(=O)OCC(C)(C)C2)C1
inactive: viability, T/C (second compound 0.000949 µM, first compound 0.0316 µM) 44.6% | viability, T/C (second compound 0.000949 µM, first compound 0.1 µM) 55.7% | viability, T/C (second compound 0.000949 µM, first compound 0.316 µM) 35.6% | viability, T/C (second compound 0.000949 µM, first compound 1 µM) 56.4% | viability, T/C (second compound 0.000949 µM, first compound 3.16 µM) 45.2% | viability, T/C (second compound 0.000949 µM, first compound 10 µM) 21.5% | viability, T/C (second compound 0.003 µM, first compound 0.0316 µM) 18.7% | viability, T/C (second compound 0.003 µM, first compound 0.1 µM) 15.2% | viability, T/C (second compound 0.003 µM, first compound 0.316 µM) 16.7% | viability, T/C (second compound 0.003 µM, first compound 1 µM) 16.3% | viability, T/C (second compound 0.003 µM, first compound 3.16 µM) 16.3% | viability, T/C (second compound 0.003 µM, first compound 10 µM) 12.6% | viability, T/C (second compound 0.00949 µM, first compound 0.0316 µM) 14.2% | viability, T/C (second compound 0.00949 µM, first compound 0.1 µM) 14% | viability, T/C (second compound 0.00949 µM, first compound 0.316 µM) 13.8% | viability, T/C (second compound 0.00949 µM, first compound 1 µM) 14.1% | viability, T/C (second compound 0.00949 µM, first compound 3.16 µM) 12.6% | viability, T/C (second compound 0.00949 µM, first compound 10 µM) 13.3% | viability, T/C (second compound 0.03 µM, first compound 0.0316 µM) 14.6% | viability, T/C (second compound 0.03 µM, first compound 0.1 µM) 14.2% | viability, T/C (second compound 0.03 µM, first compound 0.316 µM) 17% | viability, T/C (second compound 0.03 µM, first compound 1 µM) 16.4% | viability, T/C (second compound 0.03 µM, first compound 3.16 µM) 13.6% | viability, T/C (second compound 0.03 µM, first compound 10 µM) 12.3% | viability, T/C (second compound 0.0949 µM, first compound 0.0316 µM) 12.1% | viability, T/C (second compound 0.0949 µM, first compound 0.1 µM) 14.3% | viability, T/C (second compound 0.0949 µM, first compound 0.316 µM) 12.7% | viability, T/C (second compound 0.0949 µM, first compound 1 µM) 14.5% | viability, T/C (second compound 0.0949 µM, first compound 3.16 µM) 13.6% | viability, T/C (second compound 0.0949 µM, first compound 10 µM) 13.8% | viability, T/C (second compound 0.3 µM, first compound 0.0316 µM) 12% | viability, T/C (second compound 0.3 µM, first compound 0.1 µM) 13.5% | viability, T/C (second compound 0.3 µM, first compound 0.316 µM) 14.9% | viability, T/C (second compound 0.3 µM, first compound 1 µM) 15.3% | viability, T/C (second compound 0.3 µM, first compound 3.16 µM) 13.8% | viability, T/C (second compound 0.3 µM, first compound 10 µM) 13.1%
< 31.6 nM: IC50 (second compound 0.000949 µM) | IC50 (second compound 0.003 µM) | IC50 (second compound 0.00949 µM) | IC50 (second compound 0.03 µM) | IC50 (second compound 0.0949 µM) | IC50 (second compound 0.3 µM)

C=CC(=O)N1CCN(c2nc(OCC3CCCN3C)nc3c(F)c(-c4nc(N)cc(C)c4C(F)(F)F)c(Cl)cc23)C(C)C1 (centres undefined) + C#Cc1c(F)ccc2cc(O)cc(-c3ncc4c(N5CC6CCC(C5)N6)nc(OCC56CCCN5CC(F)C6)nc4c3F)c12
active: viability, T/C (second compound 0.1 µM, first compound 0.316 µM) 7.88% | viability, T/C (second compound 0.1 µM, first compound 1 µM) 11% | viability, T/C (second compound 0.316 µM, first compound 0.1 µM) 12.1% | viability, T/C (second compound 0.316 µM, first compound 0.316 µM) 9.15% | viability, T/C (second compound 0.316 µM, first compound 1 µM) 9.63% | viability, T/C (second compound 1 µM, first compound 1 µM) 10.7% | viability, T/C (second compound 3.16 µM, first compound 0.1 µM) 9.62% | viability, T/C (second compound 3.16 µM, first compound 0.316 µM) 9.96% | viability, T/C (second compound 3.16 µM, first compound 1 µM) 9.83%
< 3.16 nM: IC50 (second compound 0.0316 µM) | IC50 (second compound 0.1 µM) | IC50 (second compound 0.316 µM) | IC50 (second compound 1 µM) | IC50 (second compound 3.16 µM) | IC50 (second compound 10 µM)
inactive: viability, T/C (second compound 0.0316 µM, first compound 0.00316 µM) 18.2% | viability, T/C (second compound 0.0316 µM, first compound 0.01 µM) 12.5% | viability, T/C (second compound 0.0316 µM, first compound 0.0316 µM) 11.4% | viability, T/C (second compound 0.0316 µM, first compound 0.1 µM) 11.2% | viability, T/C (second compound 0.0316 µM, first compound 0.316 µM) 8.99% | viability, T/C (second compound 0.0316 µM, first compound 1 µM) 12% | viability, T/C (second compound 0.1 µM, first compound 0.00316 µM) 19.5% | viability, T/C (second compound 0.1 µM, first compound 0.01 µM) 12.3% | viability, T/C (second compound 0.1 µM, first compound 0.0316 µM) 11.3% | viability, T/C (second compound 0.1 µM, first compound 0.1 µM) 10.5% | viability, T/C (second compound 0.316 µM, first compound 0.00316 µM) 19.9% | viability, T/C (second compound 0.316 µM, first compound 0.01 µM) 11.8% | viability, T/C (second compound 0.316 µM, first compound 0.0316 µM) 8.76% | viability, T/C (second compound 1 µM, first compound 0.00316 µM) 18.6% | viability, T/C (second compound 1 µM, first compound 0.01 µM) 13.6% | viability, T/C (second compound 1 µM, first compound 0.0316 µM) 13.2% | viability, T/C (second compound 1 µM, first compound 0.1 µM) 8.99% | viability, T/C (second compound 1 µM, first compound 0.316 µM) 10.1% | viability, T/C (second compound 3.16 µM, first compound 0.00316 µM) 19.5% | viability, T/C (second compound 3.16 µM, first compound 0.01 µM) 13.4% | viability, T/C (second compound 3.16 µM, first compound 0.0316 µM) 9.24% | viability, T/C (second compound 10 µM, first compound 0.00316 µM) 11.9% | viability, T/C (second compound 10 µM, first compound 0.01 µM) 12.9% | viability, T/C (second compound 10 µM, first compound 0.0316 µM) 10.9% | viability, T/C (second compound 10 µM, first compound 0.1 µM) 9.94% | viability, T/C (second compound 10 µM, first compound 0.316 µM) 10.1% | viability, T/C (second compound 10 µM, first compound 1 µM) 9.54%
